The values below come from patent US20220315631A1, “STAPLED BETA-CATENIN LIGANDS” (Ohio State Innovation Foundation, priority 2019, published 2022).

Starred links: 1 amine or outer side, 2 acyl side, 3 side chain; linkers in the order of their positions; H or OH if unused. Positions of bridges follow the written chain, without caps; N, C: chain ends. Residues, ends and D or L forms follow the SMILES beside them. *: point of attachment. 5FAM = O=C1OC2(c3ccc(O)cc3Oc3cc(O)ccc32)c2ccc(C(=O)*)cc21; mXylylene = c1cc(C[*:1])cc(C[*:2])c1

For the experiment, the target named is T1, β-catenin (Homo sapiens, UniProt P35222).
T1 construct: cells harboring plasmid pGEX-β-catenin(133-665)52 were grown in LB medium; made in house; host or cells: E. coli BL21 (DE3)
T1 sequence (P35222 133-665): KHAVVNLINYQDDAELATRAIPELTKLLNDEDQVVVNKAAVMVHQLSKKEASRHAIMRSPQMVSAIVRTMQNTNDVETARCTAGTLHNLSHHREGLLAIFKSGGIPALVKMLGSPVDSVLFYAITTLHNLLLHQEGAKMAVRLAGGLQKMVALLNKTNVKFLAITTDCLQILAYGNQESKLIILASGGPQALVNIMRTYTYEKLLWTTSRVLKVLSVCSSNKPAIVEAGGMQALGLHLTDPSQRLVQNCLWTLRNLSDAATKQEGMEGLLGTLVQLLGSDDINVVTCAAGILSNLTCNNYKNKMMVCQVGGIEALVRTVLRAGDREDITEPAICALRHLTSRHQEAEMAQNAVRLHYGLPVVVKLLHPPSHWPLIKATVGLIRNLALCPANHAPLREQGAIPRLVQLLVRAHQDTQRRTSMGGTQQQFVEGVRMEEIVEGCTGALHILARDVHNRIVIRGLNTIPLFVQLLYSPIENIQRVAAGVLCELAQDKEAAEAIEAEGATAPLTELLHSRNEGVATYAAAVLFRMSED
Briefly: FP direct binding of FAM-labeled peptide 1 to GST-β-catenin. Conditions: 10 nM peptide 1 with serial dilutions of GST-β-catenin, read-out: KD or IC50. How it is done: Protein-Ligand Binding Assays. Peptide 1: Binding affinity was determined using FP. Peptide 1 (10 nM) was added to serial dilutions of GST-β-catenin in 20 mM Tris, 300 mM NaCl, pH 8.8, 0.01% Triton-X100 as reported previously. 34 After 1 h, aliquots were transferred from the reaction mixtures into black-on-black 384-well non-binding plates (Greiner) and FP was measured using a Tecan Infinite M1000 Pro plate reader. The KD value was calculated using KaleidaGraph v. 3.6 using the equation below.
Protein Purification. For β-catenin, E. coli BL21 (DE3) cells harboring plasmid pGEX-β-catenin(133-665)52 were grown in LB medium supplemented with 50 mg/L ampicillin at 37° C. to an OD600 of 0.6 before induction with 0.2 mM IPTG overnight at 30° C. Cells were harvested by centrifugation and lysed in lysis buffer (20 mM Tris, pH 8.0, 150 mM NaCl, 2 mM DTT, 1% Triton-X100, 200 mM EDTA, 10 mg/mL PMSF, and 0.2 mg/mL lysozyme) on ice for 20 min, followed by sonication (8 s off, 2 s on, 1 min total, performed twice at 70% amplitude). The homogenate was centrifuged (13,000 g for 30 min at 4° C. and the clear supernatant was loaded onto an equilibrated glutathione-agarose column. After exhaustive washing with wash buffer (20 mM Tris, pH 7.4, 150 mM NaCl, 2 mM DTT), the bound GST-β-catenin was eluted with wash buffer supplemented with 10 mM glutathione, concentrated, and stored at −80° C. in 30% glycerol.

`CC[C@H](C)[C@@H]1NC(=O)[C@@H](NC(=O)[C@H](CCC(=O)O)NC(=O)[C@@H]2CCCN2C(=O)[C@H](Cc2ccc(O)cc2)NC(=O)CNC(=O)CNC(=O)c2ccc3c(c2)C(=O)OC32c3ccc(O)cc3Oc3cc(O)ccc32)CSCc2cccc(c2)CSC[C@@H](C(=O)N[C@@H](Cc2c[nH]cn2)C(=O)N[C@@H](CC(C)C)C(=O)N[C@@H](CCC(N)=O)C(=O)N[C@@H](CCCNC(=N)N)C(=O)N[C@H](C(=O)N[C@H](C(=O)N[C@@H](CC(C)C)C(N)=O)[C@@H](C)CC)C(C)C)NC(=O)[C@H](CC(=O)O)NC(=O)[C@H](CC(C)C)NC1=O` [peptide 1] (5FAM-GGYPECILDCHLQRVIL-NH2; linker 6-10 via mXylylene): the Kd was found to be 18 nM.
